Data as given in US20050250836A1, “Inhibitors of checkpoint kinases (Wee1 and Chk1)” (Pfizer Inc, priority 2004, published 2005).

| SMILES | melting point |
| --- | --- |
| COc1cccc(Cl)c1-c1cc2c(ccn2C)c2c1C(=O)NC2=O [Example 33, 4-(2-Chloro-6-methoxyphenyl)-6-methyl-6H-2,6-diaza-as-indacene-1,3-dione] | 268 to 272 °C |
| O=C1NC(=O)c2c1c(-c1ccccc1Cl)cc1c2cc(CO)n1CCCBr [Example 50, 6-(3-Bromopropyl)-4-(2-chlorophenyl)-7-hydroxymethyl-6H-2,6-diaza-as-indacene-1,3-dione] | 218 to 220 °C |
| CSc1ccccc1-c1cc2c(c(Br)cn2C)c2c1C(=O)NC2=O [Example 31, 8-Bromo-6-methyl-4-(2-methylsulfanylphenyl)-6H-2,6-diaza-as-indacene-1,3-dione] | 240 to 243 °C |
| Cl.NCCCn1cc(Br)c2c3c(c(-c4ccccc4Cl)cc21)C(=O)NC3=O | 310 to 313 °C |
| COCCCn1c(CO)c(Br)c2c3c(c(-c4ccccc4Cl)cc21)C(=O)NC3=O [Example 60, 8-Bromo-4-(2-chlorophenyl)-7-hydroxymethyl-6-(3-methoxypropyl)-6H-2,6-diaza-as-indacene-1,3-dione] | 178 to 180 °C |
| CCOCCOCCn1cc(Br)c2c3c(c(-c4ccccc4Cl)cc21)C(=O)NC3=O [Example 36, 8-Bromo-4-(2-chlorophenyl)-6-[2-(2-ethoxyethoxy)ethyl]-6H-2,6-diaza-as-indacene-1,3-dione] | 108 to 110 °C |
| COCCCn1cc(Br)c2c3c(c(-c4ccccc4Cl)cc21)C(=O)NC3=O [Example 44, 8-Bromo-4-(2-chlorophenyl)-6-(3-methoxypropyl)-6H-2,6-diaza-as-indacene-1,3-dione] | 149 to 151 °C |
| COc1cccc(Cl)c1-c1cc2c(c(Br)cn2C)c2c1C(=O)NC2=O [Example 34, 8-Bromo-4-(2-chloro-6-methoxyphenyl)-6-methyl-6H-2,6-diaza-as-indacene-1,3-dione] | 238 to 242 °C |
| COCCCn1c(C=O)c(Cl)c2c3c(c(-c4ccccc4Cl)cc21)C(=O)NC3=O [Example 64, 8-Chloro-4-(2-chlorophenyl)-6-(3-methoxypropyl)-1,3-dioxo-1,2,3,6-tetrahydro-2;6-diaza-as-indacene-7-carbaldehyde] | 198 to 199 °C |
| O=C1NC(=O)c2c1c(-c1ccccc1Cl)cc1c2ccn1CCCO [Example 42, 4-(2-Chlorophenyl)-6-(3-hydroxypropyl)-6H-2,6-diaza-as-indacene-1,3-dione] | 225 to 227 °C |
| Cn1cc(I)c2c3c(c(-c4ccccc4Cl)cc21)C(=O)NC3=O [Example 32, 4-(2-Chlorophenyl)-8-iodo-6-methyl-6H-2,6-diaza-as-indacene-1,3-dione] | 150 to 154 °C (dec.) |
| CCOCCOCCn1c(C=O)c(Br)c2c3c(c(-c4ccccc4Cl)cc21)C(=O)NC3=O [Example 56, 8-Bromo-4-(2-chlorophenyl)-6-[2-(2-ethoxyethoxy)ethyl]-1,3-dioxo-1,2,3,6-tetrahydro-2,6-diaza-as-indacene-7-carbaldehyde] | 203 to 205 °C |
| COCCCn1c(C=O)cc2c3c(c(-c4ccccc4Cl)cc21)C(=O)NC3=O [Example 58, 4-(2-Chlorophenyl)-6-(3-methoxypropyl)-1,3-dioxo-1,2,3,6-tetrahydro-2,6-diaza-as-indacene-7-carbaldehyde] | 155 to 156 °C |
| CCOCCOCCn1c(C=O)cc2c3c(c(-c4ccccc4Cl)cc21)C(=O)NC3=O [Example 55, 4-(2-Chlorophenyl)-6-[2-(2-ethoxyethoxy)ethyl]-1,3-dioxo-1,2,3,6-tetrahydro-2,6-diaza-as-indacene-7-carbaldehyde] | 162 to 165 °C |
| O=C1NC(=O)c2c1c(-c1ccccc1Cl)cc1c2c(Cl)c(CO)n1CCCO [Example 66, 8-Chloro-4-(2-chlorophenyl)-7-hydroxymethyl-6-(3-hydroxypropyl)-6H-2,6-diaza-as-indacene-1,3-dione] | 218 to 219 °C |

More lines, now with the values ahead:

| melting point | SMILES |
| --- | --- |
| 168 to 169 °C | COCCOCCCn1c(C=O)c(Br)c2c3c(c(-c4ccccc4Cl)cc21)C(=O)NC3=O [Example 69, 8-Bromo-4-(2-chlorophenyl)-6-[3-(2-methoxyethoxy)propyl]-1,3-dioxo-1,2,3,6-tetrahydro-2,6-diaza-as-indacene-7-carbaldehyde] |
| 160 to 165 °C (dec.) | Cn1cc(CN2CCCC2)c2c3c(c(-c4ccccc4Cl)cc21)C(=O)NC3=O [Example 166, 4-(2-Chlorophenyl)-6-methyl-8-pyrrolidin-1-ylmethyl-6H-2,6-diaza-as-indacene-1,3-dione] |
| 173 to 175 °C | CCCN(CCC)CCCn1cc(Br)c2c3c(c(-c4ccccc4Cl)cc21)C(=O)NC3=O [Example 141, 8-Bromo-4-(2-chlorophenyl)-6-(3-dipropylaminopropyl)-6H-2,6-diaza-as-indacene-1,3-dione] |
| 160 to 163 °C | Cn1cc(C#N)c2c3c(c(-c4ccccc4Cl)cc21)C(=O)NC3=O [Example 151, 4-(2-Chlorophenyl)-6-methyl-1,3-dioxo-1,2,3,6-tetrahydro-2,6-diaza-as-indacene-8-carbonitrile] |
| 301 to 302 °C | Cn1c(C(=O)O)cc2c3c(c(-c4ccccc4Cl)cc21)C(=O)NC3=O [Example 83, 4-(2-Chlorophenyl)-6-methyl-1,3-dioxo-1,2,3,6-tetrahydro-2,6-diaza-as-indacene-7-carboxylic acid] |
| 179 to 183 °C | Cn1cc(C(O)CO)c2c3c(c(-c4ccccc4Cl)cc21)C(=O)NC3=O (centres unmarked) [Example 146, 4-(2-Chlorophenyl)-8-(1,2-dihydroxyethyl)-6-methyl-6H-2,6-diaza-as-indacene-1,3-dione] |
| 311 to 315 °C | Cn1ccc2c3c(c(-c4ccccc4[S+](C)[O-])cc21)C(=O)NC3=O (centres unmarked) [Example 134 (sulfoxide), 4-(2-Methanesulfinylphenyl)-6-methyl-6H-2,6-diaza-as-indacene-1,3-dione] |
| 149 to 150 °C | COCCOCCCn1c(CO)c(Br)c2c3c(c(-c4ccccc4Cl)cc21)C(=O)NC3=O [Example 70] |
| 160 to 162 °C | CN(C)CCCn1cc(Br)c2c3c(c(-c4ccccc4Cl)cc21)C(=O)NC3=O [Example 140, 8-Bromo-4-(2-chlorophenyl)-6-(3-dimethylaminopropyl)-6H-2,6-diaza-as-indacene-1,3-dione] |
| 270 to 274 °C | Cn1cc(CO)c2c3c(c(-c4ccccc4Cl)cc21)C(=O)NC3=O [Example 168, 4-(2-chlorophenyl)-8-hydroxymethyl-6-methyl-6H-2,6-diaza-as-indacene-1,3-dione] |
| 230 to 233 °C | CCc1cn(C)c2cc(-c3ccccc3Cl)c3c(c12)C(=O)NC3=O [Example 148, 4-(2-Chlorophenyl)-8-ethyl-6-methyl-6H-2,6-diaza-as-indacene-1,3-dione] |
